Where two headings read alike, the source gives them in different places.
Assays:
Assay type in all cases: cell-based
[1] = test system: K-562; experiment: NCI 60 antitumor screening (single dose / five doses); conditions: Homo sapiens
[2] = test system: SR; experiment: as above; conditions: Homo sapiens, read-out: Growth inhibition percentage (GI %)
[3] = test system: EKVX; experiment: as above; conditions: Homo sapiens, read-out: Growth inhibition percentage (GI %)
[4] = test system: HCC-2998; experiment: NCI 60 antitumor screening (single dose); conditions: Homo sapiens; HCC-2998 (colon cancer), single dose 10 μM; read-out: Growth inhibition percentage (GI %)
Summary of the method: (§1)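 Values are GI% (100 − G%) from the NCI 60-line single-dose screen, compound at 10 μM.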

[5] = test system: HOP-62; experiment: NCI 60 antitumor screening (single dose); conditions: Homo sapiens; HOP-62 (non-small cell lung cancer), single dose 10 μM; read-out: Growth inhibition percentage (GI %)
Summary of the method: as §1

[6] = test system: HS 578T; experiment: NCI 60 antitumor screening (single dose); conditions: Homo sapiens, read-out: Growth inhibition percentage (GI %)
Summary of the method: (§2)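 NCI-60 protocol: single 10 μM dose against each cell line, run in triplicate. Percent growth (G%) of treated cells measured and growth inhibition reported as GI% = 100 − G%; panel mean also given.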

[7] = test system: KM 12; experiment: NCI 60 antitumor screening (single dose); conditions: Homo sapiens, KM12; KM 12 (colon cancer), single dose 10 μM; read-out: Growth inhibition percentage (GI %)
Summary of the method: as §2

[8] = test system: NCI-H226; experiment: NCI 60 antitumor screening (single dose); conditions: Homo sapiens; NCI-H226 (non-small cell lung cancer), single dose 10 μM; read-out: Growth inhibition percentage (GI %)
Summary of the method: as §2

[9] = test system: NCI-H460; experiment: NCI 60 antitumor screening (single dose); conditions: Homo sapiens; NCI-H460 (non-small cell lung cancer), single dose 10 μM; read-out: Growth inhibition percentage (GI %)
Summary of the method: as §1

[10] = test system: OVCAR-3; experiment: NCI 60 antitumor screening (single dose); conditions: Homo sapiens
Summary of the method: as §2

[11] = test system: OVCAR-4; experiment: NCI 60 antitumor screening (single dose); conditions: Homo sapiens
Summary of the method: as §2

[12] = test system: OVCAR-5; experiment: NCI 60 antitumor screening (single dose); conditions: Homo sapiens
Summary of the method: as §1

[13] = test system: OVCAR-8; experiment: NCI 60 antitumor screening (single dose); conditions: Homo sapiens
Summary of the method: as §2

[14] = test system: PC-3; experiment: NCI 60 antitumor screening (single dose); conditions: Homo sapiens
Summary of the method: as §2

[15] = test system: SK-OV-3; experiment: NCI 60 antitumor screening (single dose); conditions: Homo sapiens
Summary of the method: as §1

[16] = test system: SNB-19; experiment: NCI 60 antitumor screening (single dose); conditions: Homo sapiens; SNB-19 (CNS cancer), single dose 10 μM; read-out: Growth inhibition percentage (GI %)
Summary of the method: as §2

[17] = test system: TK-10; experiment: NCI 60 antitumor screening (single dose); conditions: Homo sapiens
Summary of the method: as §2

[18] = test system: U251; experiment: NCI 60 antitumor screening (single dose); conditions: Homo sapiens, U-251; U251 (CNS cancer), single dose 10 μM; read-out: Growth inhibition percentage (GI %)
Summary of the method: as §1

[19] = test system: COLO 205; experiment: NCI 60 antitumor screening (single dose / five doses); conditions: Homo sapiens
[20] = test system: HCT-116; experiment: as above; conditions: Homo sapiens
[21] = test system: SF-295; experiment: as above; conditions: Homo sapiens
[22] = test system: LOX IMVI; experiment: as above; conditions: Homo sapiens, read-out: Growth inhibition percentage (GI %)
[23] = test system: SK-MEL-2; experiment: as above; conditions: Homo sapiens
[24] = test system: UACC-257; experiment: as above; conditions: Homo sapiens
[25] = test system: IGROV1; experiment: as above; conditions: Homo sapiens
[26] = test system: ACHN; experiment: as above; conditions: Homo sapiens, read-out: Growth inhibition percentage (GI %)
[27] = test system: SN 12C; experiment: as above; conditions: Homo sapiens, SN12C, read-out: Growth inhibition percentage (GI %)
[28] = test system: T-47D; experiment: as above; conditions: Homo sapiens, T47D, read-out: Growth inhibition percentage (GI %)

O=[N+]([O-])c1cc(/C=N/Nc2nc(N/N=C/c3ccc(Cl)c([N+](=O)[O-])c3)nc(N3CCOCC3)n2)ccc1Cl [compound 6i, 2,4-Bis[(E)-2-[(4-Chloro-3-nitrophenyl)methylidene]hydrazin-1-yl]-6-(morpholin-4-yl)-1,3,5-triazine]
inhibition at 10 µM ([1]; K562, read-out: Growth inhibition percentage (GI %)): 31.4% | inhibition at 10 µM ([2]; SR): 18.5% | inhibition at 10 µM ([3]; EKVX): 0.07% | inhibition at 10 µM [4]: -5.78% | inhibition at 10 µM [5]: -5.02% | inhibition at 10 µM ([6]; Hs-578T): -5.27% | inhibition at 10 µM [7]: 6.79% | inhibition at 10 µM [8]: -3.53% | inhibition at 10 µM [9]: -1.58% | inhibition at 10 µM ([10]; OVCAR-3, read-out: Growth inhibition percentage (GI %)): -10% | inhibition at 10 µM ([11]; OVCAR-4, read-out: Growth inhibition percentage (GI %)): -12.5% | inhibition at 10 µM ([12]; OVCAR-5, read-out: Growth inhibition percentage (GI %)): -9.28% | inhibition at 10 µM ([13]; OVCAR-8, read-out: Growth inhibition percentage (GI %)): 3.42% | inhibition at 10 µM ([14]; PC-3, read-out: Growth inhibition percentage (GI %)): -0.63% | inhibition at 10 µM ([15]; SK-OV-3, read-out: Growth inhibition percentage (GI %)): -22.5% | inhibition at 10 µM [16]: 0.85% | inhibition at 10 µM ([17]; TK-10, read-out: Growth inhibition percentage (GI %)): -24.4% | inhibition at 10 µM [18]: -5.95% | inhibition at 10 µM ([19]; COLO 205, read-out: Growth inhibition percentage (GI %)): -4.66% | inhibition at 10 µM ([20]; HCT-116, read-out: Growth inhibition percentage (GI %)): 7.64% | inhibition at 10 µM ([21]; SF-295, read-out: Growth inhibition percentage (GI %)): -7.07% | inhibition at 10 µM ([22]; LOX IMVI): 9.76% | inhibition at 10 µM ([23]; SK-MEL-2, read-out: Growth inhibition percentage (GI %)): -2.6% | inhibition at 10 µM ([24]; UACC-257, read-out: Growth inhibition percentage (GI %)): -2.78% | inhibition at 10 µM ([25]; IGROV-1, read-out: Growth inhibition percentage (GI %)): 7.34% | inhibition at 10 µM ([26]; ACHN): -2.76% | inhibition at 10 µM [27]: 9.02% | inhibition at 10 µM [28]: 0.85%

Oc1ccc(/C=N/Nc2nc(N/N=C/c3ccc(O)c(O)c3)nc(N3CCOCC3)n2)cc1O [compound 6j, 4-[(1e)-(2-{4-[(E)-2-[(3,4-Dihydroxyphenyl)methylidene]hydrazin-1-yl]-6-(morpholin-4-yl)-1,3,5-triazin-2-yl}hydrazin-1-ylidene)methyl]benzene-1,2-diol]
inhibition at 10 µM ([1]; K562, K-562 (leukaemia), single dose 10 μM, read-out: Growth inhibition percentage (GI %)): -5.6% | inhibition at 10 µM ([2]; SR (leukaemia), single dose 10 μM): 8.3% | inhibition at 10 µM ([3]; EKVX (non-small cell lung cancer), single dose 10 μM): 5.31% | inhibition at 10 µM [4]: -6.4% | inhibition at 10 µM [5]: -5.33% | inhibition at 10 µM ([6]; HS 578T (breast cancer), single dose 10 μM): -5.42% | inhibition at 10 µM [7]: -1.91% | inhibition at 10 µM [8]: 1.59% | inhibition at 10 µM [9]: -7.99% | inhibition at 10 µM ([10]; OVCAR-3 (ovarian cancer), single dose 10 μM, read-out: Growth inhibition percentage (GI %)): -4.79% | inhibition at 10 µM ([11]; OVCAR-4 (ovarian cancer), single dose 10 μM, read-out: Growth inhibition percentage (GI %)): -1.23% | inhibition at 10 µM ([12]; OVCAR-5 (ovarian cancer), single dose 10 μM, read-out: Growth inhibition percentage (GI %)): -3.8% | inhibition at 10 µM ([13]; OVCAR-8 (ovarian cancer), single dose 10 μM, read-out: Growth inhibition percentage (GI %)): -0.99% | inhibition at 10 µM ([14]; PC-3 (prostate cancer), single dose 10 μM, read-out: Growth inhibition percentage (GI %)): -5.8% | inhibition at 10 µM ([15]; SK-OV-3 (ovarian cancer), single dose 10 μM, read-out: Growth inhibition percentage (GI %)): -7.04% | inhibition at 10 µM [16]: -4.37% | inhibition at 10 µM ([17]; TK-10 (renal cancer), single dose 10 μM, read-out: Growth inhibition percentage (GI %)): -9.62% | inhibition at 10 µM [18]: -3.1% | inhibition at 10 µM ([19]; COLO 205 (colon cancer), single dose 10 μM, read-out: Growth inhibition percentage (GI %)): -7.11% | inhibition at 10 µM ([20]; HCT-116 (colon cancer), single dose 10 μM, read-out: Growth inhibition percentage (GI %)): -6.01% | inhibition at 10 µM ([21]; SF-295 (CNS cancer), single dose 10 μM, read-out: Growth inhibition percentage (GI %)): -3.97% | inhibition at 10 µM ([22]; LOX IMVI (melanoma), single dose 10 μM): -5.85% | inhibition at 10 µM ([23]; SK-MEL-2 (melanoma), single dose 10 μM, read-out: Growth inhibition percentage (GI %)): 3.04% | inhibition at 10 µM ([24]; UACC-257 (melanoma), single dose 10 μM, read-out: Growth inhibition percentage (GI %)): -3.12% | inhibition at 10 µM ([25]; IGROV-1, IGROV1 (ovarian cancer), single dose 10 μM, read-out: Growth inhibition percentage (GI %)): -6.08% | inhibition at 10 µM ([26]; ACHN (renal cancer), single dose 10 μM): -1.32% | inhibition at 10 µM ([27]; SN 12C (renal cancer), single dose 10 μM): 0.16% | inhibition at 10 µM ([28]; T-47D (breast cancer), single dose 10 μM): 7.67%

Reference: paper PMC9848300, “Discovery of novel enasidenib analogues targeting inhibition of mutant isocitrate dehydrogenase 2 as antileukaemic agents” (Journal of Enzyme Inhibition and Medicinal Chemistry, 2023)
